Data published in article PMC7150891, “Mertansine Inhibits mRNA Expression and Enzyme Activities of Cytochrome P450s and Uridine 5′-Diphospho-Glucuronosyltransferases in Human Hepatocytes and Liver Microsomes” (Pharmaceutics, 2020).
Like-named read-outs stand apart in the source and are kept apart here. Marks after values point to notes of the source that are not given here. Values belong to the compound of their own block, whether it stands above or below them. Where a SMILES comes first, the peptide text is derived from it. [ ]: non-standard residue; d: D form. The star is where a group is joined. Dolaproine = CO[C@@H]([C@@H]1CCCN1)[C@@H](C)C(=O)O; Dil = CC[C@H](C)[C@H](NC)[C@@H](CC(=O)O)OC; X1 = C[C@@H](N*)[C@@H](O)c1ccccc1; NMeV = CN[C@H](C(=O)O)C(C)C

Legend:
[1] = tested on: CYP2B6; assay: CYP2B6-catalyzed bupropion hydroxylase activity in human hepatocytes after 48 h treatment; conditions: human, 48 h, 10 nM
Procedure: (§1) Samples were incubated for 48 h at 37 °C in 5% CO2, and the medium was exchanged with 250 μL of fresh medium containing drugs or the vehicle every 24 h.
(§2) The effects of mertansine on CYP1A2, CYP2B6, and CYP3A4 activities were evaluated. […] Mixtures were vortexed for 2 min and then centrifuged at 13,000 g for 4 min at 4 °C. The supernatant (40 µL) was diluted with 60 µL of deionized water and then mixed for 2 min by vortexing. An aliquot (5 µL) was analyzed using LC-MS/MS [37], and CYP1A2, CYP2B6, and CYP3A4 enzyme activities were expressed as formation rates (pmol/million cells/min).
(§3) The percentage changes in enzymatic activities were calculated as (CYP activity with test compound treatment/CYP activity with vehicle control treatment) × 100. The IC50 (the concentration of the inhibitor needed for half-maximal inhibition) values were calculated using SigmaPlot ver. […] Ki (the inhibition constant) and the inhibition mode of UGT1A1, UGT1A3, and UGT1A4 activities were determined using Enzyme Kinetics ver. 1.1 (Systat Software, Inc.).

[2] = tested on: CYP2B6 mRNA; assay: CYP2B6 mRNA level in human hepatocytes after 48 h treatment (RT-PCR); format: cell-based; conditions: 48 h, 10 nM
Text: (§4) 12.5 (Systat Software, Inc.; San Jose, CA, USA). […] 1.1 (Systat Software, Inc.).

[3] = tested on: CYP activities; set-up: method as in PMID 22752008; conditions: three human hepatocytes, cited from earlier work
[4] = tested on: CYP1A2, CYP2B6, and CYP3A4 mRNA; set-up: method as in PMID 22752008; conditions: three human hepatocytes, cited from earlier work
[5] = tested on: UGT1A4 mRNA; assay: UGT1A4 mRNA level in human hepatocytes after 48 h treatment (RT-PCR); conditions: 50 μM omeprazole, 48 h, range over three human hepatocytes
[6] = tested on: CYP1A2; assay: CYP1A2-catalyzed phenacetin O-deethylase activity in human hepatocytes after 48 h treatment; conditions: 48 h; for Enzyme Activities: CYP1A2-catalyzed phenacetin O-deethylase activity: Omeprazole 50 μM
Procedure: as §1, §2, §3

[7] = tested on: CYP1A2 mRNA; assay: CYP1A2 mRNA level in human hepatocytes after 48 h treatment (RT-PCR); format: cell-based; conditions: 48 h, 50 µM
Text: as §4

[8] = tested on: UGT1A1 mRNA; assay: UGT1A1 mRNA level in human hepatocytes after 48 h treatment (RT-PCR); conditions: 48 h
[9] = tested on: CYP2C19 mRNA; conditions: human, hepatocytes, 48 h, 10 μM
[10] = tested on: CYP2C8 mRNA; conditions: human, hepatocytes, 48 h, 10 μM
[11] = tested on: HER2-positive metastatic breast cancer; conditions: five randomized clinical trials, 3,720 patients; cited from earlier work

Increase of CYP2B6-mediated bupropion hydroxylase activity [1]: 3.8–15.7 fold
Increase of CYP2B6 mRNA levels [2]: 5.6–8.7 fold
Compound: Clc1ccc(-c2nc3sccn3c2C=NOCc2ccc(Cl)c(Cl)c2)cc1 [CITCO, 6-(4-chlorophenyl)imidazo[2,1-b](1,3)thiazole-5-carbaldehyde-O-(3,4-dichlorobenzyl)oxime]

Compound: CC[C@H](C)[C@@H]([C@@H](CC(=O)N1CCC[C@H]1[C@H](OC)[C@@H](C)C(=O)N[C@H](C)[C@@H](O)c1ccccc1)OC)N(C)C(=O)[C@@H](NC(=O)[C@@H](NC)C(C)C)C(C)C [MMAE, monomethyl auristatin E] (H-[NMeV]V[Dil][Dolaproine]-X1)
Decrease of CYP activities ([3]; 100 nM MMAE): 40–71%
Decrease of CYP activities ([3]; 1000 nM MMAE): 45–81%
Suppression of CYP1A2, CYP2B6, and CYP3A4 mRNA expression ([4]; 100 nM MMAE): 61–90%
Suppression of CYP1A2, CYP2B6, and CYP3A4 mRNA expression ([4]; 1000 nM MMAE): 95–97%

Increase of CYP1A2-mediated phenacetin O-deethylase activity ([6]; 50 µM omeprazole, vs vehicle, range over three human hepatocytes): 11.7–61.8 fold
Enzyme Activities: CYP1A2-catalyzed phenacetin O-deethylase activity ([6]; Lot 319): 18.5 ± 3.3 ^a pmol/10^6 Cells/min
Enzyme Activities: CYP1A2-catalyzed phenacetin O-deethylase activity ([6]; Lot 321): 89.45 ± 4.52 ^a pmol/10^6 Cells/min
Enzyme Activities: CYP1A2-catalyzed phenacetin O-deethylase activity ([6]; Lot 361): 81.0 ± 0.53 ^a pmol/10^6 Cells/min
Increase of CYP1A2 mRNA levels [7]: 58.7–299.3 fold
Compound: COc1ccc2[nH]c([S+]([O-])Cc3ncc(C)c(OC)c3C)nc2c1 (centres unmarked) [Omeprazole, omeprazole]
Increase of UGT1A4 mRNA levels [5]: 3.3–4.1 fold
Increase of UGT1A1 mRNA levels ([8]; 50 μM omeprazole, range over three human hepatocytes): 3.9–7.0 fold
UGT1A1 mRNA (Fold Change) ([8]; Omeprazole 50 μM, Lot 319): 6.97 ± 0.94 Fold Change

Increase of CYP2C19 mRNA levels [9]: 2.0–2.2 fold
Increase of CYP2C8 mRNA levels [10]: 3.7–4.8 fold
Compound: CO[C@H]1/C=C/O[C@@]2(C)Oc3c(C)c(O)c4c(O)c(c(/C=N/N5CCN(C)CC5)c(O)c4c3C2=O)NC(=O)/C(C)=C\C=C\[C@H](C)[C@H](O)[C@@H](C)[C@@H](O)[C@@H](C)[C@H](OC(C)=O)[C@@H]1C [Rifampin, rifampin]

Compound: trastuzumab emtansine [T-DM1]
Progression-free survival and overall survival compared to other anti-HER2 therapies [11]: significantly prolonged
